Measured values taken from PubChem BioAssay AID248 (DTP/NCI, 2004).
“And” between values parts separate entries of the source, which are not always exact repeats. Identical values can stand only once. Toxic doses and inconclusive results are not listed.

Tested on: L1210 leukemia ip in BDF1 mice, survival T/C
Experiment: NCI In Vivo Anticancer Drug Screen. Data for tumor model L1210 Leukemia (intraperitoneal) in B6D2F1 (BDF1) mice
Details: endpoint: mean survival time, higher = longer survival
Procedure, shortened: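 Mice bearing the transplanted tumor received compound or vehicle. Survival of the treated group was divided by that of the vehicle-treated control group to give the ratio.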

[1] = dose: 100.0 mg/kg/injection, schedule: Q01DX001 (ip), vehicle: saline
[2] = dose: 400.0 mg/kg/injection, schedule: Q01DX001 (ip), vehicle: saline
[3] = dose: 100.0 mg/kg/injection, schedule: Q01DX001 (ip), vehicle: other
[4] = dose: 100.0 mg/kg/injection, schedule: Q01DX001 (ip), vehicle: carboxymethylcellulose (CMC)
[5] = dose: 200.0 mg/kg/injection, schedule: Q01DX001 (ip), vehicle: carboxymethylcellulose (CMC)
[6] = dose: 400.0 mg/kg/injection, schedule: Q01DX001 (ip), vehicle: carboxymethylcellulose (CMC)
[7] = dose: 50.0 mg/kg/injection, schedule: Q01DX009 (ip), vehicle: Klucel (hydroxypropylcellulose) (HPC)
[8] = dose: 100.0 mg/kg/injection, schedule: Q01DX009 (ip), vehicle: Klucel (hydroxypropylcellulose) (HPC)
[9] = dose: 100.0 mg/kg/injection, schedule: Q01DX009 (ip), vehicle: saline with Tween-80
[10] = dose: 200.0 mg/kg/injection, schedule: Q01DX009 (ip), vehicle: saline with Tween-80
[11] = dose: 100.0 mg/kg/injection, schedule: Q01DX001 (ip), vehicle: Klucel (hydroxypropylcellulose) (HPC)
[12] = dose: 200.0 mg/kg/injection, schedule: Q01DX001 (ip), vehicle: Klucel (hydroxypropylcellulose) (HPC)
[13] = dose: 200.0 mg/kg/injection, schedule: Q01DX009 (ip), vehicle: Klucel (hydroxypropylcellulose) (HPC)
[14] = dose: 400.0 mg/kg/injection, schedule: Q01DX001 (ip), vehicle: Klucel (hydroxypropylcellulose) (HPC)
[15] = dose: 100.0 mg/kg/injection, schedule: Q04DX003 (ip), vehicle: Klucel (hydroxypropylcellulose) (HPC)
[16] = dose: 200.0 mg/kg/injection, schedule: Q04DX003 (ip), vehicle: Klucel (hydroxypropylcellulose) (HPC)

`CN1C2CC(=O)CC1C(O)C2` (stereo unspecified) was tested, and the T/C [1] was 103 % of control and the T/C [2] was 90 % of control.

`Cc1ccc(S(=O)(=O)NC(CC(C)C)C(=O)O)cc1` (stereo unspecified) was tested, and the T/C [3] was 101 % of control, the T/C (dose: 200.0 mg/kg/injection, schedule: Q01DX001 (ip), vehicle: other) was 96 % of control and the T/C (dose: 400.0 mg/kg/injection, schedule: Q01DX001 (ip), vehicle: other) was 98 % of control.

For `CCCCCOC(=O)c1ccc(C)s1`, the T/C [4] was 90 % of control, the T/C [5] was 101 % of control and the T/C [6] was 98 % of control.

For `CNC(=O)Oc1ccccc1C(N)=O`, the T/C (dose: 25.0 mg/kg/injection, schedule: Q01DX009 (ip), vehicle: Klucel (hydroxypropylcellulose) (HPC)) was 110 % of control, the T/C [7] was 96 % of control and the T/C [8] was 96 % of control and 92 % of control.

For `O=C(Nc1ccc(Cl)cc1Cl)c1ccc2c(c1)C(=O)OC2=O`, the T/C [9] was 90 % of control, the T/C [10] was 92 % of control and the T/C (dose: 400.0 mg/kg/injection, schedule: Q01DX009 (ip), vehicle: saline with Tween-80) was 92 % of control.

In the case of `COc1cc2c(c(OC)c1OC)-c1ccc(=O)c(OC)cc1[C@@H](NC(=O)CCl)CC2`, the T/C [11] is reported as 94 % of control, the T/C [8] is reported as 103 % of control and the T/C [12] is reported as 98 % of control. The T/C [13] was 103 % of control and the T/C [14] was 105 % of control.

`CCOC(=O)c1cc(=O)c2c(ccc3ccccc32)[nH]1` was tested, and the T/C [15] was 94 % of control and the T/C [16] was 93 % of control.

With `O=C(COc1cccc(Cl)c1)Nc1cccc(NC(=O)c2cccc(S(=O)(=O)F)c2)c1` the T/C [4] was 88 % of control, the T/C [5] was 88 % of control and the T/C [6] was 97 % of control.

For `O=C(O)c1cccc(NC(=O)C(F)(F)F)c1`, the T/C [11] was 94 % of control, the T/C [15] was 102 % of control and the T/C [12] was 96 % of control. The T/C [16] was 108 % of control, the T/C [14] was 100 % of control and the T/C (dose: 400.0 mg/kg/injection, schedule: Q04DX003 (ip), vehicle: Klucel (hydroxypropylcellulose) (HPC)) was 103 % of control.

In the case of `CCOC(=O)Nc1cc(NC(c2ccccc2)c2ccccc2)c2[nH]cnc2n1`, the T/C (dose: 4.0 mg/kg/injection, schedule: Q01DX009 (ip), vehicle: other) is reported as 92 % of control, the T/C (dose: 5.0 mg/kg/injection, schedule: Q01DX001 (ip), vehicle: other) is reported as 104 % of control and the T/C (dose: 7.0 mg/kg/injection, schedule: Q01DX009 (ip), vehicle: other) is reported as 93 % of control. For the same compound, the T/C (dose: 9.0 mg/kg/injection, schedule: Q01DX009 (ip), vehicle: other) was 95 % of control, the T/C (dose: 9.0 mg/kg/injection, schedule: Q01DX009 (ip), vehicle: steriod suspending solution) was 97 % of control and the T/C (dose: 10.0 mg/kg/injection, schedule: Q01DX001 (ip), vehicle: other) was 102 % of control. For the same compound, the T/C (dose: 12.0 mg/kg/injection, schedule: Q01DX009 (ip), vehicle: other) was 92 % of control, the T/C (dose: 13.0 mg/kg/injection, schedule: Q01DX009 (ip), vehicle: other) was 95 % of control and the T/C (dose: 13.0 mg/kg/injection, schedule: Q01DX009 (ip), vehicle: steriod suspending solution) was 97 % of control. The T/C (dose: 18.0 mg/kg/injection, schedule: Q01DX001 (ip), vehicle: steriod suspending solution) was 98 % of control, the T/C (dose: 20.0 mg/kg/injection, schedule: Q01DX001 (ip), vehicle: other) was 100 % of control and 106 % of control and the T/C (dose: 20.0 mg/kg/injection, schedule: Q01DX009 (ip), vehicle: other) was 95 % of control and 112 % of control. For the same compound, the T/C (dose: 20.0 mg/kg/injection, schedule: Q01DX009 (ip), vehicle: steriod suspending solution) was 103 % of control, the T/C (dose: 26.0 mg/kg/injection, schedule: Q01DX001 (ip), vehicle: steriod suspending solution) was 100 % of control and the T/C (dose: 30.0 mg/kg/injection, schedule: Q01DX001 (ip), vehicle: other) was 119 % of control. For the same compound, the T/C (dose: 30.0 mg/kg/injection, schedule: Q01DX009 (ip), vehicle: other) was 105 % of control, the T/C (dose: 30.0 mg/kg/injection, schedule: Q01DX009 (ip), vehicle: steriod suspending solution) was 124 % of control and the T/C (dose: 40.0 mg/kg/injection, schedule: Q01DX001 (ip), vehicle: other) was 164 % of control. For the same compound, the T/C (dose: 40.0 mg/kg/injection, schedule: Q01DX001 (ip), vehicle: steriod suspending solution) was 105 % of control, the T/C (dose: 50.0 mg/kg/injection, schedule: Q01DX001 (ip), vehicle: other) was 155 % of control and the T/C (dose: 60.0 mg/kg/injection, schedule: Q01DX001 (ip), vehicle: other) was 119 % of control. The T/C (dose: 60.0 mg/kg/injection, schedule: Q01DX001 (ip), vehicle: steriod suspending solution) was 111 % of control, the T/C (dose: 80.0 mg/kg/injection, schedule: Q01DX001 (ip), vehicle: other) was 107 % of control and the T/C [3] was 107 % of control.

With `CCCCCCCCCCCCC/C=N/Nc1nnc(N/N=C/CCCCCCCCCCCCC)c2ccccc12` the T/C (dose: 50.0 mg/kg/injection, schedule: Q01DX001 (ip), vehicle: saline) was 106 % of control, the T/C [1] was 106 % of control and the T/C (dose: 200.0 mg/kg/injection, schedule: Q01DX001 (ip), vehicle: saline) was 109 % of control. For the same compound, the T/C [2] was 118 % of control.

In the case of `CCN(CC)CCC(C=NCC(CCN(CC)CC)(c1cccc2ccccc12)C(C)C)(c1cccc2ccccc12)C(C)C` (stereo unspecified), the T/C (dose: 1.5 mg/kg/injection, schedule: Q04DX002 (ip), vehicle: saline + alcohol) is reported as 108 % of control, the T/C (dose: 3.1 mg/kg/injection, schedule: Q04DX002 (ip), vehicle: saline + alcohol) is reported as 102 % of control and the T/C (dose: 6.25 mg/kg/injection, schedule: Q04DX002 (ip), vehicle: saline + alcohol) is reported as 94 % of control. The T/C (dose: 12.5 mg/kg/injection, schedule: Q04DX002 (ip), vehicle: saline + alcohol) was 92 % of control, the T/C (dose: 25.0 mg/kg/injection, schedule: Q04DX002 (ip), vehicle: saline + alcohol) was 92 % of control and the T/C (dose: 25.0 mg/kg/injection, schedule: Q04DX002 (ip), vehicle: saline with Tween-80) was 92 % of control.

`COC(=O)c1ccccc1NC(=O)Nc1ccccc1Cl` was tested, and the T/C [7] was 88 % of control, the T/C [8] was 88 % of control and the T/C [15] was 89 % of control. The T/C [16] was 92 % of control.

`O=c1[nH]nc(S(=O)(=O)c2ccccc2)c(=O)[nH]1` was tested, and the T/C [4] was 95 % of control, the T/C [5] was 95 % of control and the T/C [6] was 95 % of control.

In the case of `Cc1ccc(CC(=S)N2CCOCC2)cc1`, the T/C (dose: 100.0 mg/kg/injection, schedule: Q01DX001 (ip), vehicle: steriod suspending solution) is reported as 95 % of control, the T/C (dose: 200.0 mg/kg/injection, schedule: Q01DX001 (ip), vehicle: steriod suspending solution) is reported as 98 % of control and the T/C (dose: 400.0 mg/kg/injection, schedule: Q01DX001 (ip), vehicle: steriod suspending solution) is reported as 96 % of control.

With `O=c1oc2c(CN3CCOCC3)c(O)ccc2c2c1CCCC2` the T/C [4] was 86 % of control, the T/C [5] was 96 % of control and the T/C [6] was 91 % of control.

For `O=C(Nc1cccc(Cl)c1)c1cc(N=Nc2ccc([N+](=O)[O-])cc2Cl)ccc1O`, the T/C [15] was 103 % of control and the T/C [16] was 104 % of control.

`CC(O)CSc1ccccc1` (stereo unspecified) was tested, and the T/C [9] was 95 % of control and the T/C [10] was 88 % of control.

In the case of `O/N=C(\c1ccccc1)C(c1ccccc1)C(Cl)(Cl)Cl` (stereo unspecified), the T/C (dose: 100.0 mg/kg/injection, schedule: Q04DX003 (ip), vehicle: saline with Tween-80) is reported as 86 % of control, the T/C (dose: 200.0 mg/kg/injection, schedule: Q04DX003 (ip), vehicle: saline with Tween-80) is reported as 88 % of control and the T/C (dose: 400.0 mg/kg/injection, schedule: Q04DX003 (ip), vehicle: saline with Tween-80) is reported as 88 % of control.

With `COc1cc(/C=C/C(=O)c2ccc3ccccc3c2)cc(OC)c1OC` the T/C (dose: 100.0 mg/kg/injection, schedule: Q04DX002 (ip), vehicle: saline with Tween-80) was 97 % of control, the T/C (dose: 200.0 mg/kg/injection, schedule: Q04DX002 (ip), vehicle: saline with Tween-80) was 107 % of control and the T/C (dose: 400.0 mg/kg/injection, schedule: Q04DX002 (ip), vehicle: saline with Tween-80) was 87 % of control.

For `O=C(Nc1cc(C(F)(F)F)ccc1Cl)Oc1ccc(F)cc1Cl`, the T/C [8] was 97 % of control and 101 % of control, the T/C (dose: 100.0 mg/kg/injection, schedule: Q04DX002 (ip), vehicle: Klucel (hydroxypropylcellulose) (HPC)) was 95 % of control and 100 % of control and the T/C [13] was 101 % of control and 108 % of control. For the same compound, the T/C (dose: 200.0 mg/kg/injection, schedule: Q04DX002 (ip), vehicle: Klucel (hydroxypropylcellulose) (HPC)) was 100 % of control and 104 % of control, the T/C (dose: 400.0 mg/kg/injection, schedule: Q01DX009 (ip), vehicle: Klucel (hydroxypropylcellulose) (HPC)) was 108 % of control and 89 % of control and the T/C (dose: 400.0 mg/kg/injection, schedule: Q04DX002 (ip), vehicle: Klucel (hydroxypropylcellulose) (HPC)) was 103 % of control and 110 % of control.

In the case of `COc1ccccc1NC(=O)N(O)C1(C#N)CCCCC1`, the T/C [4] is reported as 94 % of control, the T/C [5] is reported as 93 % of control and the T/C [6] is reported as 96 % of control.
